For one assay, the target named is His-Brd2(60-472) (Homo sapiens (Human), UniProt P25440). The experiment in a line: TR-FRET in-vitro binding assay for BRD2. Conditions: biochemical. The gist of the method:
(§1)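 Bromodomain protein (45 nM in its addition solution) and tetra-acetylated histone H4 peptide (AcK5/8/12/16; 60 nM in its addition solution) were incubated with compounds for 35 min at 30 °C in 50 mM HEPES pH 7.5, 50 mM NaCl, 0.005% Tween20, 0.1% BSA. Eu-anti-His6 plus streptavidin-allophycocyanin detection followed, with TR-FRET read-out.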

The next assay concerns the target His-Brd3(20-477) (Homo sapiens (Human), UniProt Q15059). The experiment in a line: TR-FRET in-vitro binding assay for BRD3. The note with it: biochemical. The gist of the method: as §1
Another assay concerns K-562 cells. The experiment in a line: Cell growth inhibition assay (CellTiter-Glo), K-562. The class given is cell-based, human. The note with it: Homo sapiens, K562, read-out: K-562 TGI. In outline:
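Compounds tested as 3-fold dilution series starting at 10 μM (DMSO 0.1% final); viability read by cellular ATP (CTG luminescence) at 37° C. Signal corrected for no-cell background and a day-0 plate, scaled −100% to 100%; four-parameter fitting gives IC50 and TGI.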

Some results are limits rather than exact numbers.

Sequence of His-Brd2(60-472) (P25440 60-472): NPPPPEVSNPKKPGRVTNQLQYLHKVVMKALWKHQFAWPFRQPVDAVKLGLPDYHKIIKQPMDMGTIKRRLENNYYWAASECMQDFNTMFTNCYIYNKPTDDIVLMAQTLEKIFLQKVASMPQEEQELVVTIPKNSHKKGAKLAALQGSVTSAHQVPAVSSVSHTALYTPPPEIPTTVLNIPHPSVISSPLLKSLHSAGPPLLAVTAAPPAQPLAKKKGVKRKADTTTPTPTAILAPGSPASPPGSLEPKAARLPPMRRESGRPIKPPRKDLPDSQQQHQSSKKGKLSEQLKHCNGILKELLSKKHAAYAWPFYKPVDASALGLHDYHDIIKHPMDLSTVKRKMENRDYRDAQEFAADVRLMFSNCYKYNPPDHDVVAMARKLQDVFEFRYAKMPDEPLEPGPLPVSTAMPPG
Sequence of His-Brd3(20-477) (Q15059 20-477): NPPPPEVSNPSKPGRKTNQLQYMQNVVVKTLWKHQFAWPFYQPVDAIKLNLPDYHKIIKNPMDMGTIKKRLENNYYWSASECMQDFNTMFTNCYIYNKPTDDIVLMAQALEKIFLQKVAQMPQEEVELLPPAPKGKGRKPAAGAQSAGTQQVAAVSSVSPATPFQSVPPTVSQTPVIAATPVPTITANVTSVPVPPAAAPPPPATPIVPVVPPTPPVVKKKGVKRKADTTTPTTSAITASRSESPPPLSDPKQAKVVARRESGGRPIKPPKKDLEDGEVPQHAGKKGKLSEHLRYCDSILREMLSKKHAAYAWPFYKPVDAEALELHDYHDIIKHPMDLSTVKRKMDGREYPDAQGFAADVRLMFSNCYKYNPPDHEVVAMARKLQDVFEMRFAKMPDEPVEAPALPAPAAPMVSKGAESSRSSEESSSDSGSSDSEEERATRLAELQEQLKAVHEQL

As to `CNC(=O)n1nc(C)c2c1C(=O)N(c1cc(C)c3nnc(C)n3c1)C2c1ccc(Cl)cc1` (stereo not drawn) [Example 145, 4-(4-chlorophenyl)-5-(3,8-dimethyl-[1,2,4]triazolo[4,3-a]pyridin-6-yl)-N,3-dimethyl-6-oxo-5,6-dihydropyrrolo[3,4-c]pyrazole-1(4H)-carboxamide], the IC50 at His-Brd2(60-472) was determined as 180 nM; at His-Brd3(20-477), 190 nM. The IC (total growth inhibition) in the assay on K-562 cells was greater than 10 µM.
`CCc1c2c(nn1C(=O)N(C)C)C(=O)N(c1cc(C)c(=O)n(C)c1)C2c1ccc(Cl)cc1` (stereo not drawn) [Example 148, 4-(4-chlorophenyl)-5-(1,5-dimethyl-6-oxo-1,6-dihydropyridin-3-yl)-3-ethyl-N,N-dimethyl-6-oxo-5,6-dihydropyrrolo[3,4-c]pyrazole-2(4H)-carboxamide]: the figures for the IC50 on His-Brd2(60-472) and on His-Brd3(20-477) were 220 nM and 160 nM, respectively. Also, the IC (total growth inhibition) in the assay with K-562 cells is greater than 10 µM.
For the compound `Cc1nn(C(=O)N(C)C)c2c1[C@@H](c1ccc(Cl)cc1)N(c1cc(C)c3nnc(C)n3c1)C2=O` [Example 149, (R)-4-(4-chlorophenyl)-5-(3,8-dimethyl-[1,2,4]triazolo[4,3-a]pyridin-6-yl)-N,N,3-trimethyl-6-oxo-5,6-dihydropyrrolo[3,4-c]pyrazole-1(4H)-carboxamide], the IC50 on His-Brd2(60-472) came out at 36 nM; on His-Brd3(20-477), 39 nM. The IC (total growth inhibition) with K-562 cells was greater than 10 µM.
For the compound `Cc1cc(N2C(=O)c3nn(C(=O)N(C)C)c(C)c3[C@H]2c2ccc(Cl)cc2)cn2c(C)nnc12` [Example 150, (R)-4-(4-chlorophenyl)-5-(3,8-dimethyl-[1,2,4]triazolo[4,3-a]pyridin-6-yl)-N,N,3-trimethyl-6-oxo-5,6-dihydropyrrolo[3,4-c]pyrazole-2(4H)-carboxamide], the IC50 at His-Brd2(60-472) stood at 140 nM; at His-Brd3(20-477), 120 nM. Besides, the IC (total growth inhibition) in the assay with K-562 cells was greater than 10 µM.
On the same counts, the results for `Cc1nn(C2CNC2)c2c1C(c1ccc(Cl)cc1)N(c1cc(C)c3nnc(C)n3c1)C2=O` (stereo not drawn) [Example 151, 1-(azetidin-3-yl)-4-(4-chlorophenyl)-5-(3,8-dimethyl-[1,2,4]triazolo[4,3-a]pyridin-6-yl)-3-methyl-4,5-dihydropyrrolo[3,4-c]pyrazol-6(1H)-one] are 150 nM, 160 nM and greater than 10 µM.
For `Cc1cc(N2C(=O)c3nn(C4CNC4)c(C)c3C2c2ccc(Cl)cc2)cn2c(C)nnc12` (stereo not drawn) [Example 152, 2-(azetidin-3-yl)-4-(4-chlorophenyl)-5-(3,8-dimethyl-[1,2,4]triazolo[4,3-a]pyridin-6-yl)-3-methyl-4,5-dihydropyrrolo[3,4-c]pyrazol-6(2H)-one], the figures for the IC50 on His-Brd2(60-472) and on His-Brd3(20-477) were 100 nM and 110 nM, respectively. In the assay with K-562 cells, the IC (total growth inhibition) is greater than 10 µM.
Regarding `CC(=O)N1CC(n2nc(C)c3c2C(=O)N(c2cc(C)c(=O)n(C)c2)C3c2ccc(Cl)cc2)C1` (stereo not drawn) [Example 153, 1-(1-acetylazetidin-3-yl)-4-(4-chlorophenyl)-5-(1,5-dimethyl-6-oxo-1,6-dihydropyridin-3-yl)-3-methyl-4,5-dihydropyrrolo[3,4-c]pyrazol-6(1H)-one], the IC50 at His-Brd2(60-472) was 160 nM; on His-Brd3(20-477), 130 nM. In the assay on K-562 cells, the IC (total growth inhibition) is greater than 10 µM.
In the case of `CC(=O)N1CC(n2nc(C)c3c2C(=O)N(c2cc(C)c4nnc(C)n4c2)C3c2ccc(Cl)cc2)C1` (stereo not drawn) [Example 154, 1-(1-acetylazetidin-3-yl)-4-(4-chlorophenyl)-5-(3,8-dimethyl-[1,2,4]triazolo[4,3-a]pyridin-6-yl)-3-methyl-4,5-dihydropyrrolo[3,4-c]pyrazol-6(1H)-one], the IC50 at His-Brd2(60-472) and at His-Brd3(20-477) was 120 nM in each case. Also, the IC (total growth inhibition) in the assay with K-562 cells was greater than 10 µM.
For the compound `CCOC(=O)N1CC(n2nc(C)c3c2C(=O)N(c2cc(C)c(=O)n(C)c2)C3c2ccc(Cl)cc2)C1` (stereo not drawn) [Example 155, Ethyl 3-(4-(4-chlorophenyl)-5-(1,5-dimethyl-6-oxo-1,6-dihydropyridin-3-yl)-3-methyl-6-oxo-5,6-dihydropyrrolo[3,4-c]pyrazol-1(4H)-yl)azetidine-1-carboxylate], the IC50 stood at 80 nM on His-Brd2(60-472) and 76 nM at His-Brd3(20-477). Besides, in the assay on K-562 cells, the IC (total growth inhibition) was greater than 10 µM.
As to `CCOC(=O)N1CC(n2nc(C)c3c2C(=O)N(c2cc(C)c4nnc(C)n4c2)C3c2ccc(Cl)cc2)C1` (stereo not drawn) [Example 156, Ethyl 3-(4-(4-chlorophenyl)-5-(3,8-dimethyl-[1,2,4]triazolo[4,3-a]pyridin-6-yl)-3-methyl-6-oxo-5,6-dihydropyrrolo[3,4-c]pyrazol-1(4H)-yl)azetidine-1-carboxylate], the IC50 turned out to be 59 nM at His-Brd2(60-472) and 77 nM at His-Brd3(20-477). Besides, the IC (total growth inhibition) in the assay with K-562 cells is greater than 10 µM.
Take `Cc1nn(C2CN(C)C2)c2c1C(c1ccc(Cl)cc1)N(c1cc(C)c3nnc(C)n3c1)C2=O` (stereo not drawn) [Example 157, 4-(4-chlorophenyl)-5-(3,8-dimethyl-[1,2,4]triazolo[4,3-a]pyridin-6-yl)-3-methyl-1-(1-methylazetidin-3-yl)-4,5-dihydropyrrolo[3,4-c]pyrazol-6(1H)-one]: the IC50 is 77 nM on His-Brd2(60-472) and 200 nM on His-Brd3(20-477). Moreover, in the assay with K-562 cells, the IC (total growth inhibition) was greater than 10 µM.
As for `Cc1cc(N2C(=O)c3nn(C4CN(C)C4)c(C)c3C2c2ccc(Cl)cc2)cn2c(C)nnc12` (stereo not drawn) [Example 158, 4-(4-chlorophenyl)-5-(3,8-dimethyl-[1,2,4]triazolo[4,3-a]pyridin-6-yl)-3-methyl-2-(1-methylazetidin-3-yl)-4,5-dihydropyrrolo[3,4-c]pyrazol-6(2H)-one], the figures for the IC50 on His-Brd2(60-472) and on His-Brd3(20-477) were 98 nM and 93 nM, respectively. The IC (total growth inhibition) in the assay with K-562 cells is greater than 10 µM.
On the same counts, the results for `Cc1nn(C[C@H](O)C(F)(F)F)c2c1[C@@H](c1ccc(Cl)cc1)N(c1cc(C)c3nnc(C)n3c1)C2=O` [Example 167, (R)-4-(4-chlorophenyl)-5-(3,8-dimethyl-[1,2,4]triazolo[4,3-a]pyridin-6-yl)-3-methyl-1-((S)-3,3,3-trifluoro-2-hydroxypropyl)-4,5-dihydropyrrolo[3,4-c]pyrazol-6(1H)-one] are 42 nM, 45 nM and greater than 10 µM.

Values taken from patent US8975417B2, “Pyrazolopyrrolidine derivatives and their use in the treatment of disease” (Novartis AG, priority 2013, dated 2015).
